Values joined by “and” are separate entries in the source; they are usually repeats but may differ in a detail not shown here. Equal entries are not always repeated.
Columns and labels:
HSP90 and HSP70 = test: Western blotting of HSP90 and HSP70 protein levels in LNCaP and 22RV1 cells; format: cell-based, human; conditions: 12 h
in vivo = conditions: rat; for half-life: plasma
Procedure: Pharmacokinetic studies in vivo[37] and CYP-associated metabolic studies in vitro[56] were performed using the method reported previously in our laboratory. […] The incubation system, sample preparation and chromatography conditions are as described previously.
A simple and sensitive method for the determination of AIL in plasma was developed, using high-performance liquid chromatography-tandem mass spectrometry (HPLC-MS/MS). Brusatol was used as an internal standard. […] The details of this HPLC-MS/MS method and sample preparation are described in our previous study.
The statistical analysis was performed by SPSS 22.0 software. The differences between control group and experimental groups were determined by one-way analysis of variance. Since treatment and time course was investigated, two-way analysis of variance followed by post hoc test was also applied. Data were expressed as mean and s.d., and P<0.05 was considered significant. Pharmacokinetic parameters were calculated by WinNonlin software version 5.2.1 (Pharsight Corporation, Mountain View, USA) based on noncompartmental analysis. […]
Pharmacokinetic study of ailanthone in rats
Sprague-Dawley rats (purchased from Shanghai SLAC laboratory animal Co. Ltd., Shanghai, China) were fasted for 12 h with free access to water prior to the pharmacokinetic study. The rats were randomized into two groups for oral administration (5mg/kg) and intravenous injection (1mg/kg). Blood samples were collected from the orbital plexus into heparinized centrifuge tubes at fifteen different time points between 5 min to 36 h for the oral administration group and nine time points between 5 min to 6 h for the intravenous one. The pharmacokinetic parameters were calculated by WinNonlin software version 5.2.1 based on noncompartmental analysis. Oral bioavailability was calculated as F (%) = AUC0-∞(p.o.) / AUC0-∞(i.v.) × Dose (i.v.) / Dose (p.o.). […]
Supplementary Figure 9C). […]

LNCaP-MDV3100-R cells = test: SRB cell growth assay, LNCaP-MDV3100-R; format: cell-based, human; conditions: 72 h, 20 μM
Procedure: Cell growth was determined by SRB assay.
the SRB assay (n = 5). The half maximal inhibitory concentration (IC50) was calculated using GraphPad Prism 5.0 (GraphPad, San Diego, CA).

22RV1 xenografts = test: 22RV1 subcutaneous xenograft in BALB/c-nude mice; format: in vivo, mouse; conditions: 10 mg kg^−1 per day BIC or 2 mg kg^−1 per day AIL, i.p.
LNCaP xenografts = test: LNCaP subcutaneous xenograft in BALB/c-nude mice; format: in vivo, mouse; conditions: 10 mg kg^−1 per day BIC or 2 mg kg^−1 per day AIL, i.p.
Procedure: (§1) (a–c) 22RV1 (a), LNCaP (b) and VCaP (c) cells suspended in 0.1 ml PBS (22RV1) or matrigel (LNCaP, VCaP) were injected into the right flank of BALB/c-nude mice. Androgen containing blocks were subcutaneously inserted into each mouse in the LNCaP and VCaP xenograft models. […] The control group was injected with DMSO. Tumour volume and the mouse body weight were measured twice per week.
(§2) BALB/c-nude mice (6–8-weekold, male) were purchased from the Sino-British Sippr/BK Lab Animal Co., Ltd (Shanghai, China) and maintained under pathogen-free conditions. The animal use protocol was approved by the Institutional Animal Care and Use Committee of East China Normal University. The 22RV1, LNCaP and VCaP xenograft tumour models were developed by injecting 3 × 10^6 22RV1 cells or 5 × 10^6 LNCaP or VCaP cells in suspension into the right flank of a BALB/c-nude mouse; cells were suspended in 100 μl PBS or 50% matrigel (LNCaP and VCaP), respectively. Specifically for LNCaP and VCaP cells, continuous release testosterone pellets (15 mg testosterone per pellet, Sigma-Aldrich) were implanted subcutaneously to stimulate the growth of LNCaP and VCaP xenografts. […] The tumour volume and mouse body weight were measured twice a week. The tumour volume was calculated using the following equation: tumour volume (V)=length × width × width × 0.52. […]
(§3) Tumor volume and the mouse body weight were measured once a week. […]

LNCaP cells = test: SRB cell growth assay, LNCaP; conditions: androgen-starved LNCaP, 0.1 nM R1881, 96 h; 10 μM BIC, 10 μM MDV, 0.1-0.4 μM AIL
c4-2b cells = test: SRB cell growth assay, c4-2b; conditions: R1881, 96 h, 10 μM
22RV1 cells = test: SRB cell growth assay, 22RV1; conditions: 22RV1, R1881, 96 h, 10 μM
AR protein = test: Western blotting of AR protein level in PCa cell lines; format: cell-based, human; conditions: LNCaP, 22RV1, LNCaP-MDV3100-R and VCaP cell lines (CEL: LNCaP and 22RV1, 12 h)
Source text: Scale bars, 10 μm. […] Scale bars, 20 μm.

VCaP xenografts = test: VCaP subcutaneous xenograft in BALB/c-nude mice; format: in vivo, mouse; conditions: 2 mg/kg AIL or 10 mg/kg MDV, i.p.
Procedure: as §1, §2, §3

[1] = system: 22RV1-luc orthotopic xenografts; test: Orthotopic castration-resistant prostate cancer model (22RV1-luc, castrated mice); format: in vivo, mouse; conditions: i.p. once per day, 28 days, AIL 2 mg kg^−1 (95% CI 70–95%), MDV 10 mg kg^−1 (95% CI 0–36%)
Procedure: (d) Male BALB/c-nude mice were anaesthetized, and the dorsolateral prostate was injected with 22RV1-luc cells in matrigel. […] Tumours were imaged every week to determine local tumour growth and evidence of tumour cell dissemination. Representative images of three mice per group were illustrated (n=5). (e) After 28 days, mice were killed and local tumours and viscera of the mice were imaged to determine tumour growth and evidence of tumour cell dissemination.
For orthotopic castration-resistant prostate cancer xenografts, male BALB/c-nude mice (8–9 weeks of age) were anaesthetized using 150 mg kg^−1 2, 2, 2-tribromethanol plus 350 mg kg^−1 tert-amyl alcohol and then 5 × 10^5 22RV1-luc cells suspended in 30 μl 50% matrigel were surgically injected into the dorsolateral prostate lobes. One week after injection, the tumour-bearing mice were castrated and randomly assigned to three groups. […] Prostate tumour growth and local metastasis were monitored weekly using the IVIS Imaging System (Xenogen Corporation, Alameda, CA). Images and measurements of bioluminescent signals were acquired and analysed using Living Image and Xenogen software[52].

PSA mRNA = test: Quantitative-PCR of PSA mRNA in 22RV1 cells; conditions: 12 h
Procedure: Total RNA was extracted using TRIzol (Takara, Japan) according to the manufacturer's instructions. One microgram of total RNA was used for complementary DNA synthesis using a cDNA reverse transcription kit (Takara, Japan). Real-time PCR was performed in triplicate using gene-specific primers on a Stratagene Mx3005P PCR system (Agilent Technologies) machine. The mRNA expression levels were normalized to β-actin expression or GAPDH.

[2] = Sprague-Dawley, in vivo, iv, 1 mg/kg
[3] = Sprague-Dawley, in vivo, po, 5 mg/kg

C=CCNC1=C2C[C@@H](C)C[C@H](OC)[C@H](O)[C@@H](C)/C=C(\C)[C@H](OC(N)=O)[C@@H](OC)/C=C\C=C(/C)C(=O)NC(=CC1=O)C2=O [17-AAG]
HSP90 and HSP70 protein levels (HSP90 and HSP70): induced upregulation

C=C1[C@@H](O)[C@]2(O)OC[C@]34[C@H]2[C@@]2(C)[C@H](O)C(=O)C=C(C)[C@@H]2C[C@H]3OC(=O)C[C@@H]14 [AIL, Ailanthone]
bioavailability (in vivo; Sprague-Dawley, in vivo): 25.7% | AUC(0-inf) (in vivo; [2]): 1030 ng·h/mL | AUC(0-t) (in vivo; [2]): 965 ng·h/mL | C0 (in vivo; [2]): 1650 ng/mL and 4.39 µM | AUC(0-inf) (in vivo; [3]): 1320 ng·h/mL | AUC(0-t) (in vivo; [3]): 1120 ng·h/mL | Cmax (in vivo; [3]): 87 ng/mL and 231 nM | Tmax (in vivo; [3]): 0.388 h | half-life (in vivo; iv, i.v. 1 mg kg^−1, n=6, mean±s.d.): 1.89 ± 0.66 h | half-life (in vivo; po, p.o. 5 mg kg^−1, n=6, mean±s.d.): 12.2 ± 2.6 h

CC(O)(CS(=O)(=O)c1ccc(F)cc1)C(=O)Nc1ccc(C#N)c(C(F)(F)F)c1 (centres unmarked) [BIC, bicalutamide]
cell growth (SRB) (LNCaP-MDV3100-R cells): totally resistant | tumour growth (22RV1 xenografts): resistant | tumour volume (LNCaP xenografts): significantly reduced the tumour volume | cell growth (SRB) (LNCaP cells): effectively blocked cell growth | cell growth (SRB) (c4-2b cells): could not significantly inhibit cell growth | cell growth (SRB) (22RV1 cells): could not significantly inhibit cell growth

CC1=C(O)C(=O)C=C2C1=CC=C1[C@@]2(C)CC[C@@]2(C)[C@@H]3C[C@](C)(C(=O)O)CC[C@]3(C)CC[C@]12C [CEL, Celastrol]
AR protein level (AR protein): downregulated the protein level of AR

CNC(=O)c1ccc(N2C(=S)N(c3ccc(C#N)c(C(F)(F)F)c3)C(=O)C2(C)C)cc1F [MDV, MDV3100]
cell growth (SRB) (LNCaP-MDV3100-R cells): totally resistant | response of xenografts (VCaP xenografts): still responded | reduction of tumour volume [1]: 15% | cell growth (SRB) (LNCaP cells): effectively blocked cell growth | cell growth (SRB) (c4-2b cells): could not significantly inhibit cell growth | cell growth (SRB) (22RV1 cells): could not significantly inhibit cell growth | PSA mRNA level in the presence of R1881 (PSA mRNA; 22RV1, 10 nM R1881, 10 μM MDV or 0.2 μM AIL): decreased | PSA mRNA level in the absence of R1881 (PSA mRNA; 22RV1, no R1881, 10 μM MDV or 0.2 μM AIL): no effect
